The record followed here is US20090123501A1, “INHIBITION OF THE SH2-DOMAIN CONTAINING PROTEIN TYR-PHOSPHATASE, SHP-1, TO ENHANCE VACCINES” (Baylor College of Medicine, priority 2007, published 2009).

One series deals with SHP-1 mRNA. Nature of the series: SHP-1 mRNA knock-down by quantitative RT-PCR in RAW cells. The class given is cell-based, murine. The conditions noted are these: relative to no virus treatment. The text has this: Two mouse SHP-1 specific small hairpin RNAs (shRNA) sequences, 272 and 1149, (referred to by their nucleotide position from the start site of the coding sequence in Genbank mRNA Accession #BC012660) were designed and cloned into the adenoviral vector pAd-BLOCK-iT-DEST RNAi (Invitrogen, Carlsbad, Calif.) which provides U6 polymerase […] promoter-driven expression of the shRNA. The exemplary shRNA sequences Ad5-shRNA#1149 (SEQ ID NO:11) and Ad5-shRNA#272 (SEQ ID NO:12) are provided as follows: […] (SEQ ID NO:11) and […] (SEQ ID NO:12), wherein sequence underlined in the shRNA is the exemplary SHP-1 specific palandromic 21-mer. Adenovirus carrying the appropriate sequence were produced and expanded in HEK-293 cells (ATCC Manassas, Va.). These viruses were then plaque purified and the ability to knock-down SHP-1 mRNA was tested in RAW cells, a murine macrophage-like cell line, by quantitative RT-PCR and are shown as a percent of the no virus treatment (FIG. 2A and FIG. 2B). Adenovirus expressing green fluorescent protein was used as a negative control for viral treatment (FIG. 2C). […] The ability of this shRNA to knock down SHP-1 protein was examined by western blot (FIG. 2D). A large scale, high titer, preparation of Ad-shRNA#1149 was produced by the Viral Vector Core Laboratory at Baylor College of Medicine and used in subsequent studies.

Another series has as its system BMDCs. Nature of the series: In vitro transwell DC migration to CCL21. It counts as cell-based, C57BL/6 mice. The conditions noted are these: BMDCs transduced 48 hours, 100 ng/mL CCL21, 3 hours transwell. As for the experimental part:
Primary bone marrow-derived dendritic cells (BMDCs) were prepared from wild type mice in the following manner: Bone marrow cells were flushed from the femurs and tibias of C57BL/6 mice and cultured for 6 days in RPMI media supplemented with 10% FBS, 10 ng/mL IL-4 and 10 ng/mL GMCSF along with antibiotics. On day 6, dendritic cells (DCs) were either purified by magnetic bead assisted cell sorting (MACS; Miltenyi Biotec, Auburn, Calif.) prior to adenoviral transduction, or used as unpurified bulk DCs that were then transduced with adenovirus.
For DCs to initiate an immune response, they must capture antigen in the periphery and then migrate to the lymph nodes where they stimulate antigen specific T cells. To determine if SHP-1 signaling could affected the ability of DCs to migrate to draining lymph nodes, trafficking studies were performed both in vitro and in vivo. For the in vitro DC migration assays, unpurified bulk BMDCs were transduced with either Ad5-SHP1-shRNA or Ad5-scrambled-shRNA for 48 hours or left untreated. Half of the untreated cells were treated with 1 μg/mL LPS for 24 hours. Cells were collected and washed in serum-free media (SFM) and resuspended at 5×10^6 cells/mL. […] BMDCs migrating into the lower chamber were counted using a hematocytometer.

In the next series the test system is TRAMP C2 tumors. Nature of the series: DC vaccination of mice bearing ectopic TRAMP C2 tumors. The class given is in vivo, C57BL/6 mice. The note with it: by viral transduction, pooled across all peptide treatments, vs untreated mice. On the procedure:
BMDCs were prepared as described above, transduced with either Ad5-SHP-1-shRNA or the control Ad5-scrambled-shRNA at 40,000 viral particles/cell, and pulsed with one of the six peptides listed in Table 1 (OVA, an irrelevant epitope to TRAMP 2 tumors, served as a negative control peptide) or a lysate of TRAMP C2 cells as a positive control antigen. 6-8 week C57BL/6 mice, bearing TRAMP C2 tumors (7×10^6 cells injected s.c. on the dorsal flank three days prior to vaccination), were given a single i.p. vaccination with 2×10^6 treated DCs or left untreated. Tumors were measured (length and width using calipers) every 2-4 days until termination of the study and tumor volume was estimated using the formula: Tumor volume (mm3)=x^2y×0.5236, where x is the smaller tumor dimension, and y is the larger tumor dimension. A-G) TRAMP tumor growth curves for vaccines loaded with the indicated peptides. Error bars represent the standard error of the mean of 5 mice vaccinated in each treatment. […] H-I) ANOVA analysis of peptide function and SHP-1 function. Data represent the averages 10 mice per peptide treatment and 5 mice in the no treatment control group for H) and 35 mice per viral transduction treatment and 5 mice in the no treatment control group for I). The green diamonds represent the mean and 95% confidence interval for each group from the ANOVA. The black line is the mean of means for the study and red symbols indicate significant differences (p<0.05 by Tukey-Kramer HSD multiple comparisons test).
To determine if there was a significant difference between the various peptides used in these DC vaccinations, mice were pooled across viral treatments (Ad5-SHP-1 shRNA or Ad5-scrambled-shRNA) employing the same peptide. An ANOVA for differences in mean tumor volume at day 48 post-vaccination (the time at which the majority of the vaccinated tumor growth curves change slope) and Tukey-Kramer HSD multiple comparisons test.
Next experiments were conducted to determine if vaccines transduced with Ad5-SHP-1-shRNA inhibited tumor growth compared to transduction with Ad5-scrambled-shRNA or no vaccine treatment, irrespective of what peptide was used in the vaccine.

As to “CACCGGAGCATGACACAGCAGAATACGAATATTCTGCTGTGTCATGCTCC (chemistry not given here) [Ad5-SHP-1-shRNA]”, the “reduction in SHP-1 mRNA” value in the series with SHP-1 mRNA is on record as over 5 fold reduction. Moreover, in the series on BMDCs, the “migration index (migration to CCL21 relative to migration without CCL21)” value was “not significantly different from that of untreated cells”. Also, the “TRAMP C2 tumor volume (ANOVA)” value in the series with TRAMP C2 tumors was “significantly lower tumor volumes”.
